Test results as given in patent US20210070748A1, “INHIBITORS OF BRUTONS TYROSINE KINASE” (Pharmacyclics LLC, priority 2015, published 2021).

How the values were obtained:
Assay type in all cases: biochemical
ITK = target: T1, ITK (Homo sapiens, UniProt Q08881); experiment: Inhibition of a panel of kinases, in vitro HotSpot kinase assay: ITK; details: D-compounds panel data; 1 μM ATP
T1 sequence (Q08881 1-620): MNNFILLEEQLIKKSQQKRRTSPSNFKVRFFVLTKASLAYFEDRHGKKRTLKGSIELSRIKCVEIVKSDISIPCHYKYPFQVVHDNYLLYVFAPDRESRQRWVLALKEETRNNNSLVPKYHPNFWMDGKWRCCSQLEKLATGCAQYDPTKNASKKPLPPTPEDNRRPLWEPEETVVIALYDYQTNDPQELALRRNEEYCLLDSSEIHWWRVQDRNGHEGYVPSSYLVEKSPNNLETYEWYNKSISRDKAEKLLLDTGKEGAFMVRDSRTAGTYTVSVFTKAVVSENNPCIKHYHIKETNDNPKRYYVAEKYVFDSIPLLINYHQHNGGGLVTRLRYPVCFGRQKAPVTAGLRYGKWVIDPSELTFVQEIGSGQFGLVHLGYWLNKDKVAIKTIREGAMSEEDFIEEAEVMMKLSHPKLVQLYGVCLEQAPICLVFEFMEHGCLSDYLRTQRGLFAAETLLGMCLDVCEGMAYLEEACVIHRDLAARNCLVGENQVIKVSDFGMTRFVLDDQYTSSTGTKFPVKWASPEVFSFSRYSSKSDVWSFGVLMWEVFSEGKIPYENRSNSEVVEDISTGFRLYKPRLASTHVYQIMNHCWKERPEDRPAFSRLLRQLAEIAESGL
Method: (§1) The degree of inhibition of a panel of kinases is determined using the in vitro HotSpot kinase assay (purified enzymes, ^33P-ATP, an appropriate substrate and 1 μM ATP).

EGFR = EGFR (Homo sapiens, UniProt P00533); experiment: Inhibition of a panel of kinases, in vitro HotSpot kinase assay: EGFR; details: D-compounds panel data; 1 μM ATP
Chain of EGFR (P00533 25-1210): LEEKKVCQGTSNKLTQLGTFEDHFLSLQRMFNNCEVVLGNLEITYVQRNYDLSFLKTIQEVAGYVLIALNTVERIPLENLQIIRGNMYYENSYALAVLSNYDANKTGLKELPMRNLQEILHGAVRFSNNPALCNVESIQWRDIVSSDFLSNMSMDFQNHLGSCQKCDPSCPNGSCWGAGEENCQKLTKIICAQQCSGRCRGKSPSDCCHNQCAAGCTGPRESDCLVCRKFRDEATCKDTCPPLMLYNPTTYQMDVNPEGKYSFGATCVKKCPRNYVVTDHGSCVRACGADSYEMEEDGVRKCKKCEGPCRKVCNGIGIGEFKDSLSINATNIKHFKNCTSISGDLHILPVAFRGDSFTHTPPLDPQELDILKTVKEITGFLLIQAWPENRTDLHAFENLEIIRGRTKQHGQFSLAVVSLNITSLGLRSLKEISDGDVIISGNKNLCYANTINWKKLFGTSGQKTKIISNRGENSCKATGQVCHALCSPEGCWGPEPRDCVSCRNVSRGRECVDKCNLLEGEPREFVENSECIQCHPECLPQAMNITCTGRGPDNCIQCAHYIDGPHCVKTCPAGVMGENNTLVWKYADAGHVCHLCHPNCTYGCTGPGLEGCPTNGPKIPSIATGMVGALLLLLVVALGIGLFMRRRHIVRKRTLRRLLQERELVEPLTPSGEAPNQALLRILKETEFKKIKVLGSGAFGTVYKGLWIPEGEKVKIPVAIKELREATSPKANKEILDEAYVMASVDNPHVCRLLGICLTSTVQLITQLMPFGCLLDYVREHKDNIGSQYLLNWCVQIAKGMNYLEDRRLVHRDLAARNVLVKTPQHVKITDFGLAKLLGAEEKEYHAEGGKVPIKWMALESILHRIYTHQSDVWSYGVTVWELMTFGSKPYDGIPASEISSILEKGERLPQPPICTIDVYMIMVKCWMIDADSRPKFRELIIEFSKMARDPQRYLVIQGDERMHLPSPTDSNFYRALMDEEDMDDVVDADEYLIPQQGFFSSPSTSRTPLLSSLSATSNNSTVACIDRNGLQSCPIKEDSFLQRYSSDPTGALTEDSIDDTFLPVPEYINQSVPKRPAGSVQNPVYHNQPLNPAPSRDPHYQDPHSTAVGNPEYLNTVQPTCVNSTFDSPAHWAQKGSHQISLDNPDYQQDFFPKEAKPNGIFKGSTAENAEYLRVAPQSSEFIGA
Method: as §1

JAK3 = target: T2, JAK3 (Homo sapiens, UniProt P52333); experiment: Inhibition of a panel of kinases, in vitro HotSpot kinase assay: JAK3; details: D-compounds panel data; 1 μM ATP; read-out: IC50 JAK3
T2 sequence (P52333 1-1124): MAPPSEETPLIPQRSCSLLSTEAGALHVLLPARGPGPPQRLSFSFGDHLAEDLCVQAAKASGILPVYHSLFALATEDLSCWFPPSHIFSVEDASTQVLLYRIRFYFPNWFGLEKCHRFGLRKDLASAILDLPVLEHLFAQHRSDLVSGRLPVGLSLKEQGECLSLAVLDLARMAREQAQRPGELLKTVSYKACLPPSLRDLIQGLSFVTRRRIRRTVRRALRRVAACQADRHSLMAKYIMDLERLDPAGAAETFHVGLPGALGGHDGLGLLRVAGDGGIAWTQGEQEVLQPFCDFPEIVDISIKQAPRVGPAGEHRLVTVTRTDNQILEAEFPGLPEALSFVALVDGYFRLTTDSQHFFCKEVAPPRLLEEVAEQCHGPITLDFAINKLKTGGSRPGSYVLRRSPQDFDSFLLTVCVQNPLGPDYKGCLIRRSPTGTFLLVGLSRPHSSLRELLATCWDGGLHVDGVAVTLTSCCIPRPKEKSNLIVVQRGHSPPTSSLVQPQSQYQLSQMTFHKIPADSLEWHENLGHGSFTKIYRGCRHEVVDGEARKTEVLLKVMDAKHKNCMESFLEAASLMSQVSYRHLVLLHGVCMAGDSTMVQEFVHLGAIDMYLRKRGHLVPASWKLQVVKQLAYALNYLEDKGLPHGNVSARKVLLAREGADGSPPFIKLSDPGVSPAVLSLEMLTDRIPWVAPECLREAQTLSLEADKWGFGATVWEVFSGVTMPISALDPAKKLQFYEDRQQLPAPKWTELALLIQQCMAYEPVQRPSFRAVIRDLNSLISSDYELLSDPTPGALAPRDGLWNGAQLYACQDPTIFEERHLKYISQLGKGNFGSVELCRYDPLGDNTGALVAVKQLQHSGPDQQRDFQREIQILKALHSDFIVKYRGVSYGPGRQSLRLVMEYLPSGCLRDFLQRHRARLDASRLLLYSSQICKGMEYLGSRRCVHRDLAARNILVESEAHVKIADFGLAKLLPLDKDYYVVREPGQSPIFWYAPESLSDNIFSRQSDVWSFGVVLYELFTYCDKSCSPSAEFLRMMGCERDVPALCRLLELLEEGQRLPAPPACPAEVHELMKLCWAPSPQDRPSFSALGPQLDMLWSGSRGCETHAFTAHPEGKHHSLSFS

SRC = SRC (Homo sapiens, UniProt P12931); experiment: Inhibition of a panel of kinases, in vitro HotSpot kinase assay: SRC; details: D-compounds panel data; 1 μM ATP
Chain of SRC (P12931 whole entry): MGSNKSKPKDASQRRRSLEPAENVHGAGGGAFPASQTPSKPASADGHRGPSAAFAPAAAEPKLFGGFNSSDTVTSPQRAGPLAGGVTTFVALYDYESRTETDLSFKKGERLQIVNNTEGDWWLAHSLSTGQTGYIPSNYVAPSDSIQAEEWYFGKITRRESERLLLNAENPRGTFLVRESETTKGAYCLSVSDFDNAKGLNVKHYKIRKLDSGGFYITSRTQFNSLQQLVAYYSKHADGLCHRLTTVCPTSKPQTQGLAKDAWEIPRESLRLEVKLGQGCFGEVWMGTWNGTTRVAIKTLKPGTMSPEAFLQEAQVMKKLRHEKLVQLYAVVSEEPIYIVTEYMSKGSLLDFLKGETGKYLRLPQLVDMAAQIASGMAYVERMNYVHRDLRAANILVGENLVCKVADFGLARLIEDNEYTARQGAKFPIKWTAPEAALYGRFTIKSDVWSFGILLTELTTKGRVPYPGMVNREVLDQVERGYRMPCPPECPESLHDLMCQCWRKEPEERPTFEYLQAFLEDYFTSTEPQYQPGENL
Method: as §1

LCK = LCK (Homo sapiens, UniProt P06239); experiment: Inhibition of a panel of kinases, in vitro HotSpot kinase assay: LCK; details: D-compounds panel data; 1 μM ATP; read-out: IC50 LCK
Chain of LCK (P06239 whole entry): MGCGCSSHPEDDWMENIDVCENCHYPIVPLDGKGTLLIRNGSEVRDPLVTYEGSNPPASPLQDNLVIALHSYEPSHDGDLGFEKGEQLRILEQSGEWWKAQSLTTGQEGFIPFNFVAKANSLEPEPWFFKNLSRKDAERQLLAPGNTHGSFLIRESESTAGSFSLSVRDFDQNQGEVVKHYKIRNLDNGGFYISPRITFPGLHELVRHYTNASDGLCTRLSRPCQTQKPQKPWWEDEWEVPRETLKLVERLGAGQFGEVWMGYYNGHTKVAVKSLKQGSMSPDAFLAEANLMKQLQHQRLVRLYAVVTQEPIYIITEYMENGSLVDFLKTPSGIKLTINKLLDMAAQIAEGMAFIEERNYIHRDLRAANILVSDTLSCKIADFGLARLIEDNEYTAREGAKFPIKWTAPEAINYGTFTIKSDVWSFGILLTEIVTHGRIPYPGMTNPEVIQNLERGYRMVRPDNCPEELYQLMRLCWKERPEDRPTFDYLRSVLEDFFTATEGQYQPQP

| IC50 (ITK) [nM] | IC50 (EGFR) [nM] | IC50 (JAK3) [nM] | IC50 (SRC) [nM] | IC50 (LCK) [nM] | SMILES |
| --- | --- | --- | --- | --- | --- |
| 1000 to 10000 | 1000 to 10000 | 1000 to 10000 | 100 to 1000 | 100 to 1000 | C[C@@H]1[C@H](NC(=O)c2ccc(C3CC3)cc2F)CCCN1c1cnc(C(N)=O)c(Nc2cnn(C)c2)c1 [Example D-117, 5-[(2R,3R)-3-(4-cyclopropyl-2-fluorobenzamido)-2-methylpiperidin-1-yl]-3-[(1-methyl-1H-pyrazol-4-yl)amino]pyridine-2-carboxamide] |
| 100 to 1000 | 1000 to 10000 | 1000 to 10000 | 100 to 1000 | 100 to 1000 | C[C@@H]1[C@H](NC(=O)N(C)C)CCCN1c1cnc(C(N)=O)c(Nc2cc(CN3CCOCC3)ns2)n1 [Example D-118, 5-[(2R,3R)-3-[(dimethylcarbamoyl)amino]-2-methylpiperidin-1-yl]-3-{[3-(morpholin-4-ylmethyl)-1,2-thiazol-5-yl]amino}pyrazine-2-carboxamide] |
| > 10000 | 100 to 1000 | > 10000 | 1000 to 10000 | 1000 to 10000 | Cc1nsc(Nc2nc(N3CCC[C@@H](NC(=O)N(C)C)[C@H]3C)cnc2C(N)=O)c1C [Example D-119, 3-[(dimethyl-1,2-thiazol-5-yl)amino]-5-[(2R,3R)-3-[(dimethylcarbamoyl)amino]-2-methylpiperidin-1-yl]pyrazine-2-carboxamide] |
| 1000 to 10000 | > 10000 | 1000 to 10000 | 1000 to 10000 | 1000 to 10000 | C[C@@H]1[C@H](NC(=O)N(C)C)CCCN1c1cnc(C(N)=O)c(Nc2ccc(CN3CCN(C)CC3)cc2)c1 [Example D-120, 5-[(2R,3R)-3-[(dimethylcarbamoyl)amino]-2-methylpiperidin-1-yl]-3-({4-[(4-methylpiperazin-1-yl)methyl]phenyl}amino)pyridine-2-carboxamide] |
| 1000 to 10000 | 1000 to 10000 | 1000 to 10000 | 100 to 1000 | 100 to 1000 | C[C@@H]1[C@H](NC(=O)N(C)C)CCCN1c1cnc(C(N)=O)c(Nc2ccc3cccnc3c2)n1 [Example D-121, 5-[(2R,3R)-3-[(dimethylcarbamoyl)amino]-2-methylpiperidin-1-yl]-3-[(quinolin-7-yl)amino]pyrazine-2-carboxamide] |
| 1000 to 10000 | > 10000 | 1000 to 10000 | 1000 to 10000 | 100 to 1000 | C[C@@H]1[C@H](NC(=O)c2ccc(C3CC3)cc2F)CCCN1c1cnc(C(N)=O)c(Nc2ccc(CN3CCN(C)CC3)cc2)c1 [Example D-125, 5-[(2R,3R)-3-(4-cyclopropyl-2-fluorobenzamido)-2-methylpiperidin-1-yl]-3-({4-[(4-methylpiperazin-1-yl)methyl]phenyl}amino)pyridine-2-carboxamide] |
| 1000 to 10000 | > 10000 | > 10000 | 100 to 1000 | 100 to 1000 | C[C@@H]1[C@H](NC(=O)c2ccc(C3CC3)cc2F)CCCN1c1cnc(C(N)=O)c(Nc2ccc(N3CCN(C)CC3)cc2)c1 [Example D-126, 5-[(2R,3R)-3-(4-cyclopropyl-2-fluorobenzamido)-2-methylpiperidin-1-yl]-3-{[4-(4-methylpiperazin-1-yl)phenyl]amino}pyridine-2-carboxamide] |
| 100 to 1000 | 1000 to 10000 | 1000 to 10000 | 100 to 1000 | 100 to 1000 | C[C@@H]1[C@H](NC(=O)N(C)C)CCCN1c1cnc(C(N)=O)c(Nc2cnn(C)c2)n1 [Example D-128, 5-[(2R,3R)-3-[(dimethylcarbamoyl)amino]-2-methylpiperidin-1-yl]-3-[(1-methyl-1H-pyrazol-4-yl)amino]pyrazine-2-carboxamide] |
| 100 to 1000 | 1000 to 10000 | > 10000 | 100 to 1000 | 1000 to 10000 | C[C@@H]1[C@H](NC(=O)c2ccc(C3CC3)cc2F)CCCN1c1cnc(C(N)=O)c(Nc2ccc(S(=O)(=O)N3CCN(C)CC3)cc2)n1 [Example D-130, 5-[(2R,3R)-3-(4-cyclopropyl-2-fluorobenzamido)-2-methylpiperidin-1-yl]-3-({4-[(4-methylpiperazin-1-yl)sulfonyl]phenyl}amino)pyrazine-2-carboxamide] |

Second part, the compound before the results:

| SMILES | IC50 (ITK) [nM] | IC50 (EGFR) [nM] | IC50 (JAK3) [nM] | IC50 (SRC) [nM] | IC50 (LCK) [nM] |
| --- | --- | --- | --- | --- | --- |
| C[C@@H]1[C@H](NC(=O)c2ccc(C3CC3)cc2F)CCCN1c1cnc(C(N)=O)c(Nc2cc(CN(C)C)ns2)n1 [Example D-122, 5-[(2R,3R)-3-(4-cyclopropyl-2-fluorobenzamido)-2-methylpiperidin-1-yl]-3-({3-[(dimethylamino)methyl]-1,2-thiazol-5-yl}amino)pyrazine-2-carboxamide] | 100 to 1000 | 1000 to 10000 | 1000 to 10000 | 10 to 100 | 10 to 100 |
| CC(C)n1cc(Nc2nc(N3CCC[C@@H](NC(=O)c4ccc(C5CC5)cc4F)[C@H]3C)cnc2C(N)=O)cn1 [Example D-123, 5-[(2R,3R)-3-(4-cyclopropyl-2-fluorobenzamido)-2-methylpiperidin-1-yl]-3-{[1-(propan-2-yl)-1H-pyrazol-4-yl]amino}pyrazine-2-carboxamide] | 100 to 1000 | 1000 to 10000 | > 10000 | 100 to 1000 | 100 to 1000 |
| C[C@@H]1[C@H](NC(=O)c2ccc(C3CC3)cc2F)CCCN1c1cnc(C(N)=O)c(Nc2ccc3cccnc3c2)n1 [Example D-124, 5-[(2R,3R)-3-(4-cyclopropyl-2-fluorobenzamido)-2-methylpiperidin-1-yl]-3-[(quinolin-7-yl)amino]pyrazine-2-carboxamide] | > 10000 | > 10000 | > 10000 | > 10000 | > 10000 |
| C[C@@H]1[C@H](NC(=O)N(C)C)CCCN1c1cnc(C(N)=O)c(Nc2ccc(N3CCN(C)CC3)cc2)c1 [Example D-127, 5-[(2R,3R)-3-[(dimethylcarbamoyl)amino]-2-methylpiperidin-1-yl]-3-{[4-(4-methylpiperazin-1-yl)phenyl]amino}pyridine-2-carboxamide] | 1000 to 10000 | > 10000 | > 10000 | 1000 to 10000 | 1000 to 10000 |
| C[C@@H]1[C@H](NC(=O)c2ccc(C3CC3)cc2F)CCCN1c1cnc(C(N)=O)c(Nc2ccn(C)n2)n1 [Example D-129, 5-[(2R,3R)-3-(4-cyclopropyl-2-fluorobenzamido)-2-methylpiperidin-1-yl]-3-[(1-methyl-1H-pyrazol-3-yl)amino]pyrazine-2-carboxamide] | > 10000 | 1000 to 10000 | > 10000 | > 10000 | > 10000 |
| Cc1ccc(-c2cnc([C@@H]3CCCN(c4cnc(C(N)=O)c(Nc5cc(C)ns5)n4)[C@@H]3C)[nH]2)cc1 [Example D-131, 3-[(3-methyl-1,2-thiazol-5-yl)amino]-5-[(2R,3R)-2-methyl-3-[5-(4-methylphenyl)-1H-imidazol-2-yl]piperidin-1-yl]pyrazine-2-carboxamide] | 1000 to 10000 | 100 to 1000 | 100 to 1000 | 100 to 1000 | 100 to 1000 |
